Data from patent US20250134889A1, “TARGETING IRE1 KINASE AND FMRP FOR PROPHYLAXIS, MANAGEMENT AND TREATMENT OF ATHEROSCLEROSIS” (CEDARS-SINAI MEDICAL CENTER, priority 2022, published 2025).

Columns and labels:
[1] = target: T1, IRE1 kinase activity (Mus musculus, UniProt Q9EQY0); assay: IRE1 and FMRP phosphorylation in peritoneal macrophages of TM-injected mice (western blot); type: in vivo; conditions: C57BL/6, AMG-18 30 mg/kg 8 hours, TM 1 mg/kg
T1 construct: from tissue; host or cells: thioglycolate-elicited peritoneal macrophages of C57BL/6 mice
T1 sequence (Q9EQY0 21-977): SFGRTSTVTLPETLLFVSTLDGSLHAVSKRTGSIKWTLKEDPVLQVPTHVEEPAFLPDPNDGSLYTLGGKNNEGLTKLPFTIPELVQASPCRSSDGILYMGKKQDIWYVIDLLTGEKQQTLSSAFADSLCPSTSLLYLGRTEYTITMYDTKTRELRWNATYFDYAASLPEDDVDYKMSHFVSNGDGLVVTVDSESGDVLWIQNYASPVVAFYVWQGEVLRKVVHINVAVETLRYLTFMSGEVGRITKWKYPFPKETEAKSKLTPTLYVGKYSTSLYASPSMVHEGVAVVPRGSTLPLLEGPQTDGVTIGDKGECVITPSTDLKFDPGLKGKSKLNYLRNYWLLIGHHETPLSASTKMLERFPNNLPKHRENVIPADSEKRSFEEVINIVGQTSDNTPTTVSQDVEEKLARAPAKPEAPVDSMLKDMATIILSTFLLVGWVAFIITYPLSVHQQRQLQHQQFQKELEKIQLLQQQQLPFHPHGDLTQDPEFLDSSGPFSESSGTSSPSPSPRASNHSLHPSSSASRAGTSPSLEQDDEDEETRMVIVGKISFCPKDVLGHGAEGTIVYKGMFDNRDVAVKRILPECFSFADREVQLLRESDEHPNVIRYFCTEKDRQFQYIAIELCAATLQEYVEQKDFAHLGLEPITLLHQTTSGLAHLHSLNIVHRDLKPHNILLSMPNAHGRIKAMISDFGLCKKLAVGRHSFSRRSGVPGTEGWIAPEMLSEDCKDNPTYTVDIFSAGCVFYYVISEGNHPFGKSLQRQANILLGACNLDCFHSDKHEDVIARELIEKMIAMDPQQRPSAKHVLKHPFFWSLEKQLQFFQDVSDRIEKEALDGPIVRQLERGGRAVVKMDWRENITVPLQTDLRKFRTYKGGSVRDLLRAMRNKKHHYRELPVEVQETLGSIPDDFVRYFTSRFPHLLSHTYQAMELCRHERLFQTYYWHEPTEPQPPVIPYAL
Method: FIGS. 1A-1K depict FMRP is a new inositol-requiring enzyme-1 (IRE1) kinase substrate. A representative blot is shown from at least n=3 independent experiments. Data are mean±SEM. Unpaired 1-test with Welch's correction or paired 1-test. * P≤0.05, ** P≤0.01, *** P≤0.001. • 1A. STING analysis of published IRE1 interactome proteins in relation to FMRP (Acosta-Alvear et al., 2018). • 1B. HEK293T cells were co-transfected with IRE1 and FMRP plasmids and stimulated with TG (600 nM) or TM (1 mg/ml) for 2 hours. Protein lysates were immunoprecipitated (IP) with anti-IRE1 or IgG (control) antibodies and analyzed by Western blotting using specific antibodies for FMRP and IRE1 (n=3). • 1C. RAW 264.7 mouse macrophages were treated with either oxLDL (50 μg/ml) or TG (300 nM) for 6 hours. Protein lysates were treated with λ Phosphatase (PPase) for 30 minutes and analyzed by western blotting using specific antibodies for pFMRP, FMRP, pIRE1, IRE1 and β-Actin. pFMRP/FMRP fold induction is depicted above the blots (n=6). • 1D. […] Protein lysates were analyzed by western blotting using specific antibodies for pFMRP, FMRP, pIRE1, IRE1 and β-Actin. pFMRP/FMRP-fold induction is depicted above the blots (n=5). • 1E. […] Protein lysates were analyzed by western blotting using specific antibodies for pFMRP, FMRP, pIRE1, IRE1 and β-Actin. pFMRP/FMRP fold induction is depicted above the blots (n=4). • 1F. […]

[2] = test system: BMDMs; assay: Apoptosis detection by flow cytometry (PI); type: cell-based, mouse; conditions: AMG-18 10 μM 1 hour pre-treatment, PA 12 hours
Description: FIGS. 5K-5T depict: (Data are mean #SEM; Mann Whitney U test. * P≤0.05, ** P≤0.01, *** P≤0.001) • 5K. The ratio of mouse weight at the beginning of the experiment over the weight at the end of the experiment in FIG. 5A (n=12-13); and plasma measurements for glucose (n=12-13), cholesterol (n=12-13) and lipoproteins (n=4), respectively, from mice in FIG. 5A. • 5L. Abundance of B cells, T cells and monocytes in the peripheral blood as % of total CD45+ cells from the Fmr1^+/+ and Fmr1^−/− mice in FIG. 5A (n=12-13) . • 5M. Macrophage area was calculated from MOMA-2 (red)-stained aortic root sections as % of MOMA2^+ stained area to total plaque area (n=8; Scale bar=100 μm). • 5N. Apoptosis was calculated from the number of TUNEL^+ cells (green) in the MOMA-2-stained (red) plaque area (n=8; Scale bar=100 μm). • 5O. Fmr1^+/+ and Fmr1^−/− BMDMs or AMG-18 pre-treated cells (10 μM, 1 hour) were treated with PA ([…]) treatment for 12 hours and then stained with Propidium iodide (PI) (n=5). • 5P. % Smooth muscle actin (α-SMA) was calculated from aortic root sections stained with a-SMA (green) as % α-SMA^+ area to the total plaque area (n=8, Scale bar 100 μm). • 5Q. % collagen area was calculated from Masson's Trichrome staining as the percentage of collagen (blue) area in total plaque area (n=8; Scale bar=100 μm). • 5R. […]

Question: What does the source list for `Cc1ccc2c(NS(=O)(=O)c3ccccc3Cl)cccc2c1Oc1ncccc1-c1ccnc(N[C@H]2CCCNC2)n1` [AMG-18]?
Answer: FMRP phosphorylation in PM [1]: reduced; IRE1 kinase activity (pIRE1) in PM [1]: inhibited; apoptosis (PI staining) [2]: no significant change
